US20180338899A1, “INHIBITORS FOR METHYLATION-RELATED ENZYMES HAT1 AND KAT8” (priority 2015, published 2018)
Structures can show the parent of a compound that is named as a salt. Where two headings read alike, the source gives them in different places.

Legend:
[1] = biological target: T1, HAT1 (Homo sapiens, UniProt O14929); assay: FDA library screening (analysis service PLEXERA) and binding strength, HAT1
T1 sequence (O14929 1-419): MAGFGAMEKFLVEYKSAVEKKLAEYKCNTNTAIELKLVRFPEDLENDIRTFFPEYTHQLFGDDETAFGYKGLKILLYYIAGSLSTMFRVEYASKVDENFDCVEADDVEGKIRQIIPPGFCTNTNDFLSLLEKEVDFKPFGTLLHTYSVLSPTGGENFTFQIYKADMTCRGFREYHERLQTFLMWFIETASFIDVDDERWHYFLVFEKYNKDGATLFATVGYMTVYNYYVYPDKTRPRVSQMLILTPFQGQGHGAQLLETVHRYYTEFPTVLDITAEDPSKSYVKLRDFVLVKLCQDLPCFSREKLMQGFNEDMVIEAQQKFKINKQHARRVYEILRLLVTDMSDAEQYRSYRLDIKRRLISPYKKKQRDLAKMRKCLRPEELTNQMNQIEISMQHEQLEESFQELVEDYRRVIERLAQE
Text: (§1) Medicines containing each as an active ingredient (provided that each medicine has an indication other than that for malignant tumors) have already been commercially available.
(§2) Meanwhile, medicines containing each as an active ingredient (provided that each medicine has an indication other than that for malignant tumors) have already been commercially available.

[2] = cited from earlier work
[3] = tested on: HAT1; assay: Inhibitory effect of low-molecular-weight compounds on expression of HAT1 by RT-PCR; assay type: cell-based; details: FIG. 6
[4] = tested on: KAT8; assay: Inhibitory effect of low-molecular-weight compounds on expression of KAT8 by RT-PCR; assay type: cell-based; details: FIG. 6
[5] = biological target: T2, KAT8 (Homo sapiens, UniProt Q9H7Z6); assay: FDA library screening (analysis service PLEXERA) and binding strength, KAT8
T2 sequence (Q9H7Z6 1-458): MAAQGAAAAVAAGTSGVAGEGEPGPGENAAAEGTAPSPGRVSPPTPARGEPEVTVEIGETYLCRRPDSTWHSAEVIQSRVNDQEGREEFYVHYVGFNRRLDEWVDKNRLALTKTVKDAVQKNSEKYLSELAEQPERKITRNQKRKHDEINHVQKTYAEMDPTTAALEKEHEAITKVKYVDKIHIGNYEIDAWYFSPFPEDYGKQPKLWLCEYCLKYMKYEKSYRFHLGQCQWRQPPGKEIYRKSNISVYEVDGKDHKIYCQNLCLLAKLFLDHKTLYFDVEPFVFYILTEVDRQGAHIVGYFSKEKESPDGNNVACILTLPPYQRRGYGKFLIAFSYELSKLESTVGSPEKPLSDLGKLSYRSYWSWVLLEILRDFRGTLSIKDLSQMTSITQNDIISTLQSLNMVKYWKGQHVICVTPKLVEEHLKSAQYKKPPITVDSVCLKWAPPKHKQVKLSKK
Text: as §1, §2

[6] = interview form of commercially available medicine
[7] = interview form, given as percent (external preparation / solution concentration)

| Compound | inhibition of function of HAT1 [1] | maximum effective blood concentration (Cmax) [2, 6] | inhibition of function of KAT8 [5] | further results |
| --- | --- | --- | --- | --- |
| CN(C(=O)CN(CCO)CC(=O)N(C)C(C)(C)Cc1ccccc1)C(C)(C)Cc1ccccc1 [oxethazaine] | inhibited only HAT1 | 1 µg/mL | – | – |
| colistin sulfate | inhibited function of both HAT1 and KAT8 | 4.4 µg/mL | inhibited function of both HAT1 and KAT8 | inhibitory effect on expression of HAT1 [3]: inhibitory effect; inhibitory effect on expression of KAT8 [4]: inhibitory effect |
| CO[C@]12C[C@@H](COC(=O)c3cncc(Br)c3)CN(C)[C@@H]1Cc1cn(C)c3cccc2c13 [nicergoline] | inhibited only HAT1 | 96 ng eq./mL | – | – |
| Cc1cc(=O)n(-c2ccccc2)n1C [antipyrine] | inhibited only HAT1 | 50 µg/mL | – | – |
| CC(C)NCC(O)COc1ccc(CCOCC2CC2)cc1 (centres unmarked) [betaxolol hydrochloride] | inhibited function of both HAT1 and KAT8 | 0.0418 µg/mL | inhibited function of both HAT1 and KAT8 | – |
| CC(C)NCC(O)COc1ccc(COCCOC(C)C)cc1 (centres unmarked) [bisoprolol fumarate] | inhibited function of both HAT1 and KAT8 | 0.1 µg/mL | inhibited function of both HAT1 and KAT8 | – |
| CCc1oc2ccccc2c1C(=O)c1cc(Br)c(O)c(Br)c1 [benzbromarone] | inhibited only HAT1 | 3.1 µg/mL | – | – |
| Cc1cc(C(C)(C)CC(C)(C)C)ccc1OCCOCC[N+](C)(C)Cc1ccccc1.[Cl-] [methylbenzethonium chloride] | inhibited function of both HAT1 and KAT8 | 1.93 µg/mL | inhibited function of both HAT1 and KAT8 | inhibitory effect on expression of HAT1 [3]: inhibitory effect; inhibitory effect on expression of KAT8 [4]: inhibitory effect; maximum effective blood concentration (Cmax) [2, 7]: 0.3% |
| C=CCc1ccccc1OCC(O)CNC(C)C (centres unmarked) [alprenolol hydrochloride] | inhibited function of both HAT1 and KAT8 | 0.12 µg/mL | inhibited function of both HAT1 and KAT8 | – |
| C=CC1=C(C(=O)O)N2C(=O)[C@@H](NC(=O)/C(=N\OCC(=O)O)c3csc(N)n3)[C@H]2SC1 [cefixime] | – | 3.97 µg/mL | – | – |
| COC(=O)CCc1ccc(OCC(O)CNC(C)C)cc1 (centres unmarked) [esmolol hydrochloride] | inhibited only HAT1 | 2.7 µg/mL | – | – |
| CN(CCCCCCCCCCN(C)C(=O)Oc1cccc([N+](C)(C)C)c1)C(=O)Oc1cccc([N+](C)(C)C)c1 [demecarium bromide] | inhibited function of both HAT1 and KAT8 | – | inhibited function of both HAT1 and KAT8 | – |
| clofilium tosylate | inhibited only HAT1 | 0.11 µg/mL | – | – |
| C=CCOc1ccccc1OCC(O)CNC(C)C (centres unmarked) [oxprenolol hydrochloride] | inhibited function of both HAT1 and KAT8 | 0.3 µg/mL | inhibited function of both HAT1 and KAT8 | maximum effective blood concentration ([2]; commercially available medicine): 30.18 µg/µL |
| CC(C(=O)O)c1ccc(C(=O)c2cccs2)cc1 (centres unmarked) [suprofen] | inhibited only HAT1 | – | – | maximum effective blood concentration (Cmax) [2, 7]: 1% |
| O=C([O-])c1ccccc1-c1c2cc(Br)c(=O)cc-2oc2[c]([Hg+])c([O-])c(Br)cc12.[Na+].[Na+].[OH-] [merbromin] | – | – | inhibited only KAT8 | maximum effective blood concentration (Cmax) [2, 7]: 2% |
| CN[C@H](CC(C)C)C(=O)N[C@H]1C(=O)N[C@@H](CC(N)=O)C(=O)N[C@H]2C(=O)N[C@H]3C(=O)N[C@H](C(=O)N[C@H](C(=O)O)c4cc(O)cc(O)c4-c4cc3ccc4O)[C@H](O)c3ccc(c(Cl)c3)Oc3cc2cc(c3O[C@@H]2O[C@H](CO)[C@@H](O)[C@H](O)[C@H]2O[C@H]2C[C@](C)(N)[C@H](O)[C@H](C)O2)Oc2ccc(cc2Cl)[C@H]1O [vancomycin hydrochloride] | inhibited function of both HAT1 and KAT8 | 30 µg/mL | inhibited function of both HAT1 and KAT8 | – |
| CCC(=O)O[C@@H](O[P@](=O)(CCCCc1ccccc1)CC(=O)N1C[C@H](C2CCCCC2)C[C@H]1C(=O)O)C(C)C [fosinopril] | – | 4 µg/mL | – | – |
| C[C@@H](O)[C@H]1C(=O)N2C(C(=O)O)=C(SCCN=CN)C[C@H]12 [imipenem] | – | 82.8 µg/mL | – | – |
| NCC[C@H](O)C(=O)N[C@@H]1C[C@H](N)[C@@H](O[C@H]2O[C@H](CN)[C@@H](O)[C@H](O)[C@H]2O)[C@H](O)[C@H]1O[C@H]1O[C@H](CO)[C@@H](O)[C@H](N)[C@H]1O [amikacin hydrate] | inhibited function of both HAT1 and KAT8 | 25 µg/mL | inhibited function of both HAT1 and KAT8 | – |
| CCCN1C[C@H](CSC)C[C@@H]2c3cccc4[nH]cc(c34)C[C@H]21 [pergolide mesylate] | – | 0.026 µg/mL | inhibited only KAT8 | – |
| CCN(CC)C(=O)Nc1ccc(OCC(O)CNC(C)(C)C)c(C(C)=O)c1 (centres unmarked) [celiprolol hydrochloride] | inhibited function of both HAT1 and KAT8 | 0.3 µg/mL | inhibited function of both HAT1 and KAT8 | – |
| C[N+]1(C)CCC(OC(=O)C(O)(c2ccccc2)C2CCCC2)C1 (centres unmarked) [glycopyrrolate] | – | – | inhibited only KAT8 | – |
| CCN1CCN(C(=O)N[C@@H](C(=O)N[C@@H]2C(=O)N3C(C(=O)O)=C(CSc4nnnn4C)CS[C@H]23)c2ccc(O)cc2)C(=O)C1=O [cefoperazone dihydrate] | – | 1,000 ng/ml | – | – |
| CC(N/C(=N\C#N)Nc1ccncc1)C(C)(C)C (centres unmarked) [pinacidil] | inhibited only HAT1 | 2.5 µg/mL | – | – |
| CCCCNc1cc(C(=O)O)cc(S(N)(=O)=O)c1Oc1ccccc1 [bumetanide] | – | 0.882 µg/mL | inhibited only KAT8 | – |
| C=C1[C@@H]2CC[C@H]3[C@]4(C)C[C@H](O[C@@H]5O[C@H](CO)[C@@H](OS(=O)(=O)O)[C@H](OS(=O)(=O)O)[C@H]5OC(=O)CC(C)C)C[C@@H](C(=O)O)[C@H]4CC[C@]3(C2)[C@@H]1O [atractyloside potassium salt] | inhibited only HAT1 | 60 µg/mL | – | – |
| CCc1cccc(CC)c1NC(=O)CN(CC(=O)O)CC(=O)O [etifenin] | inhibited only HAT1 | 5.0 µg/mL | – | – |
| COCCc1ccc(OCC(O)CNC(C)C)cc1.COCCc1ccc(OCC(O)CNC(C)C)cc1.O=C(O)C(O)C(O)C(=O)O (racemic) [metoprolol-(+,−)(+)-tartrate salt] | – | 0.077 µg/mL | inhibited only KAT8 | – |
